This is an account of results in PMC10525516, “Novel NADPH Oxidase-2 Inhibitors as Potential Anti-Inflammatory and Neuroprotective Agents” (Antioxidants, 2023).

The nature of data set [1]: Short-term (seven day) in vivo toxicity in mice. The arrangement: species or system C57BL/6 mice. The conditions noted are these: 20 mg/kg i.p. daily for seven days. On the procedure:
All animal experiments were performed according to protocols and guidelines approved by the Emory University Animal Care and Use Committee. The in vivo toxicity of TG15-132 was assessed using C57BL/6 mice (cat. no. 027, Charles River Laboratories, Wilmington, MA, USA). Animals were injected daily (i.p.) with saline, vehicle (DMSO 10%, PEG400 30%, water 60%), or 20 mg/kg of TG15-132 in vehicle for seven days, with body weight recorded each day. At the end of treatment, organs were harvested to study organ weight loss, and blood was collected from each mouse via cardiac puncture, and serum was isolated. Serum was analyzed for kidney function using blood urea nitrogen and creatinine, liver function using alanine amino transferase, and tissue damage using lactate dehydrogenase.

Data set [2] in a line: Plasma and brain pharmacokinetics in C57BL/6 mice. It is filed as in vivo. The conditions noted are these: male, C57BL/6, mouse, ip, C57BL6 mice, single dose 20 mg/kg i.p. On the procedure:
TG15-132 at a 20 mg/kg dose in a vehicle formulation of 10% DMSO, 50% PEG400, and 40% reversed osmosis-purified water (v/v) was administered to healthy male C57BL/6 mice weighing an average of 27 g by intraperitoneal (i.p.) injection. Blood samples (approximately 60 μL) were collected from the retro-orbital plexus of three animals at times 0.08, 0.25, 0.5, 1, 2, 4, 8, and 24 h after compound administration. Along with the terminal blood samples, the brain samples were also collected at the time points 0.25, 0.5, 2.0, 4.0, 8.0, and 24 h.
(§1) Blood samples were collected into labeled microtubes containing dipotassium EDTA solution (20%) as an anticoagulant. Plasma was immediately harvested from the blood by centrifugation at 4000 rpm for 10 min at 4 ± 2 °C and stored below −70 °C until bioanalysis. After isolation, brain tissue samples were rinsed three times in ice cold normal saline (for 5–10 s/rinse using ~5–10 mL normal saline in disposable petri dishes for each rinse) and dried on blotting paper. Tissue samples were homogenized using ice-cold phosphate-buffered saline (pH 7.4). The total homogenate volume (µL) was three times the tissue weight (mg). All homogenates were stored below −70 ± 10 °C until bioanalysis. Concentrations of TG15-132 in plasma and brain samples were determined by fit-for-purpose liquid chromatography with the tandem mass spectrometry method (Sai-Life, Hyderabad, India). Phoenix WinNonlin (version 8.0, Certara, Princeton, NJ, USA) was used to analyze the pharmacokinetic parameters.

A further data set deals with T1, Nox2 (Homo sapiens, UniProt P04839).
T1 construct: endogenous in cells
T1 sequence (P04839 2-570 limits assumed): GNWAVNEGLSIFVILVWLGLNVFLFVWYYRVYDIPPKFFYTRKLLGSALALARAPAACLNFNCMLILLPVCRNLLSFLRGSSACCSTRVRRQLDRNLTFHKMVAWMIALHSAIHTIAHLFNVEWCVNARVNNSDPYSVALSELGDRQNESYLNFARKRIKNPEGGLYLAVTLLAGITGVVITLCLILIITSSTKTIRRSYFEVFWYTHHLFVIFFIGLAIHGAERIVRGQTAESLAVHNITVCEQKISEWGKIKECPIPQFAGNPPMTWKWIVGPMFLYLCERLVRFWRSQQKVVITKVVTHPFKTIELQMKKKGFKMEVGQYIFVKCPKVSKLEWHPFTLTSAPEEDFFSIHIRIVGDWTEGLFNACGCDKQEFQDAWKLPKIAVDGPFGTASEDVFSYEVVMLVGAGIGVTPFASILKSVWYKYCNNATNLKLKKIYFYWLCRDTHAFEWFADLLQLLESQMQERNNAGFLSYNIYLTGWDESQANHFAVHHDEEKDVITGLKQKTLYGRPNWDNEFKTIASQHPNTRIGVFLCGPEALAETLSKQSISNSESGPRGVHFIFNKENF
T1 sequence (P13498 2-195 partner limits assumed): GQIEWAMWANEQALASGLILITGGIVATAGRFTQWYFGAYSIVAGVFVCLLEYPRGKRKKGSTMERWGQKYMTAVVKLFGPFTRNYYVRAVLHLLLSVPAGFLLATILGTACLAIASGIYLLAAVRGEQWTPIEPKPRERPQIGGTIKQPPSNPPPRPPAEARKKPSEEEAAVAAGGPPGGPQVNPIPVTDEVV
In words: Rapid HPLC analysis of HE oxidation (2-OH-E+) for O2•− production by activated dHL60 cells. It is filed as cell-based. Conditions: 1 h incubation after PMA, Figure 5D,E. The procedure: For high-performance liquid chromatography (HPLC)-based analyses of superoxide production by activated dHL60 cells, the cells (0.8 mL, 2 × 10^5 cells/mL) were pretreated with inhibitors for 30 min, as described above, followed by the addition of 200 µL of the mixture of PMA (5 µM) and HE (50 µM); then, they were incubated for 1 h at 37 °C in the dark. Next, 0.5 mL aliquots of the cell suspensions were transferred into 1.5 mL microcentrifuge tubes prefilled with 10 µL of a mixture of 3,8-diamino-6-phenylphenanthridine (50 µM, used as an internal standard), superoxide dismutase, and catalase (5 mg/mL and 5 kU/mL, respectively, used to stop probe oxidation), and the tubes were centrifugated (5 min, 3000× g) to pellet the cells. Clear supernatants (0.2 mL) were transferred into HPLC vials and analyzed for HE, 2-hydroxyethidium (2–OH–E^+), ethidium (E^+), and diethidium (E^+–E^+) content, as described previously. Briefly, an Agilent 1100 HPLC system equipped with an Ascentis Express Phenyl-Hexyl column (50 mm × 4.6 mm, 2.7 µm, Supelco, Bellefonte, PA, USA) and absorption and fluorescence detectors was used. […] Samples (25 µL) were injected, and the products were detected by monitoring absorbance (290 and 370 nm) and fluorescence (exc. 370 nm, emi. 565 nm) signals.

A short description of data set [3]: Plasma and brain pharmacokinetics in Sprague Dawley rats. It counts as in vivo. The procedure:
as §1
Rapid metabolism and the inability to cross the BBB represent major obstacles in the application of bioactive agents in neurodegenerative diseases. Based on the premise that Nox2 plays a major role in oxidative damage and exacerbates neurodegenerative diseases, we envision applications of brain-permeable Nox2 inhibitors in mechanistic studies in vivo, and, long-term, in the development of novel therapeutic strategies. Therefore, we performed in vivo pharmacokinetics studies to determine the time profile of plasma concentration and accumulation of TG15-132 in the brain tissue of Sprague Dawley rats and C57BL6 mice.

For orientation: half-life means how long it takes for the measured level to halve. Broadly, the AUC(0-inf) is the area under the concentration-time curve extrapolated to infinity. Consider `CN(C)CCCn1c(SCCc2c[nH]c3ccccc23)nc2ccc(F)cc2c1=O` [TG15-132], for which the “blood urea nitrogen compared with saline-treated mice” value in data set [1] is given as “significant drop”. In data set [1], the “weights of the lung, liver, or brain” value is reported as “no changes”. Further, the “loss of body weight” value in data set [1] (marginal and nonsignificant) is reported as 7%. Further, the “serum injury markers (BUN, creatinine, ALT, LDH) vs vehicle” value in data set [1] (n = 6) is listed as “no differences”. Further, the half-life in data set [2] (brain, read-out: brain half-life (converted)) was 2.7 h; in data set [2] (plasma, read-out: plasma half-life (converted)) it was 2.7 h; in data set [3] (rat, brain, ip, single dose 20 mg/kg i.p., read-out: brain half-life (converted)) it was 5.6 h; in data set [3] (rat, plasma, ip, single dose 20 mg/kg i.p., read-out: plasma half-life (converted)), 3.7 h. Moreover, the Kp in data set [2] (brain, read-out: brain-to-plasma ratio) was above 6. Moreover, the “HE consumption and 2-OH-E+ formation (HPLC)” value at Nox2 is listed as “inhibited by cell pretreatment with TG15-132 in a dose-dependent manner”. For the same compound, the Kp at 8 h in data set [3] (rat, brain, ip, 20 mg/kg i.p., up to 8 h after administration, read-out: brain-to-plasma ratio) is above 10. The compound further had an AUC(0-inf) in data set [3] (rat, plasma, ip, single dose 20 mg/kg i.p.) of 10200 ng·h/mL. For the same compound, in data set [3] (single dose 20 mg/kg i.p.), the clearance rate stood at 32.8 mL/min/kg.
